Data reported in patent publication EP4806899A1, “FUSED RING DERIVATIVE, PREPARATION METHOD THEREFOR AND USE THEREOF IN MEDICINE” (Shanghai Qilu Pharmaceutical Research and Development …, priority 2023, dated 2025).
Blank lines part the entries; values can stand above or below the compound they belong to.

Key:
plasma hormone levels = test: Pharmacodynamic determination in monkeys: plasma aldosterone and cortisol after ACTH stimulation; assay type: in vivo, cynomolgus monkeys; conditions: P.O.
Method: Cynomolgus monkeys were used as test animals to evaluate the pharmacodynamics of multiple compounds of the present disclosure on plasma hormone levels following gavage administration (P.O.) at various doses such as 0.1 mpk (and others, e.g., 0.03 mpk, 0.1 mpk, and 0.3 mpk).
Male cynomolgus monkeys, Suzhou Xishan Zhongke Laboratory Animal Co., Ltd. Animal production license number: SCXK (Su) 2023-0001, animal use license number: SYXK (Su) 2020-0017.
Male cynomolgus monkeys were performed gavage administration (P.O.) at doses set as: 0 mpk (vehicle group, i.e., Veh group), 0.03 mpk, 0.1 mpk, and 0.3 mpk. In each group, 15 µg/kg ACTH was injected intramuscularly 1 hour after dosing. Continuous venous blood samples were collected from each group at 1 hour before administration and at multiple time points after administration. Blood samples were collected, and plasma aldosterone and its precursors, as well as plasma corticosterone and its precursors, at multiple time points were analyzed using LC/MS methods.
Venous blood samples were collected at 1-2 hours before gavage administration and at multiple time points after intramuscular injection of ACTH (adrenocorticotropic hormone). The samples were placed in EDTA-K2 tubes, centrifuged at 4 °C, 2600 g for 10 minutes to separate plasma, which was then stored at -80 °C.
• HPLC: Waters ACQUITY UPLC I-Class PLUS; • Mass spectrometry conditions: Triple Quad™ 7500 (Serial No. FA224362212) mass spectrometer; • Chromatographic column: phenomenex kinetex 2.6µm C8 100A 50 × 4.60 mm; • Mobile phase: mobile phase A was 0.5 mM ammonium fluoride solution containing 0.1% formic acid; mobile phase B was MeOH.
The data in Figs. 1, 2, 3, 4, and 5 are analyzed based on PD changes at 30 minutes after ACTH stimulation. The percentage of PD relative to the control group (Veh group) at 30 minutes after ACTH stimulation serves as the main basis for pharmacodynamic evaluation, calculated according to the following formula: [formula] where PD refers to aldosterone or cortisol. Table 8 Pharmacodynamic Evaluation of Example Compound C44 in Monkeys

[1] = Pharmacokinetic determination in monkeys after gavage administration (P.O.); assay type: in vivo, Cynomolgus monkeys (Macaca fascicularis); conditions: cynomolgus monkey, po, 1 mg/kg, plasma
Method: Cynomolgus monkeys (Macaca fascicularis) were used as test animals to study the pharmacokinetic behavior of the compounds of the present disclosure in plasma following gavage administration (P.O.). Plasma samples were collected at specific time points, compound concentrations in plasma were detected by LC-MS/MS, and pharmacokinetic parameters were calculated to reflect the pharmacokinetics in cynomolgus monkeys.
Cynomolgus monkeys, male, Ankaiyibo (Zhanjiang) Biotechnology Co., Ltd.
After administration to cynomolgus monkeys, venous blood samples of 0.3 mL were collected at 0.25, 0.5, 1, 2, 4, 8, and 24 hours and placed in EDTA-K2 test tubes. Plasma was separated by centrifugation at 4 °C, 4000 g for 5 minutes and stored at -80 °C.
• 1) 50 µL of plasma sample was precipitated by adding 200 µL of acetonitrile, vortex mixed, and centrifuged for 15 minutes. • 2) The processed supernatant was diluted with water and analyzed by LC/MS/MS to determine the concentration of the test compound.
Pharmacokinetic parameters were calculated using WinNonlin 8.3. Cmax represents the maximum plasma concentration, T1/2 represents the terminal elimination half-life, MRTInf represents the mean residence time, and AUC represents the area under the plasma concentration-time curve. Table 6 Pharmacokinetic Parameters of the Compounds of the Present Disclosure in Monkeys

[2] = 0.03 mpk, 30min after ACTH stimulation, plasma
[3] = 0.1 mpk, 30min after ACTH stimulation, plasma
[4] = 0.3 mpk, 30min after ACTH stimulation, plasma

Cmax ([1]; in vivo): 1600 nM
MRT inf ([1]; in vivo): 8.77 h
half-life ([1]; in vivo): 7.44 h
AUC(0-t) at 24 h ([1]; in vivo, read-out: AUC0-24): 12.8 µM·h
SMILES: CCC(=O)N[C@@H]1CCOc2c(-c3ccc4c(c3)CCC(=O)N4C)cncc21 [Compound A02-P2]
Cortisol (plasma hormone levels; 0.03 mpk, 0h, plasma): 269.0 ng/mL
Aldosterone (plasma hormone levels; 0.03 mpk, 0h, plasma (Table 12)): 0.13 ng/mL
Cortisol (plasma hormone levels; [2]): 384.0 ng/mL
Aldosterone (plasma hormone levels; 0.03 mpk, 30min after ACTH stimulation, plasma (Table 12)): 0.27 ng/mL
Cortisol (plasma hormone levels; 0.1 mpk, 0h, plasma): 436.0 ng/mL
Aldosterone (plasma hormone levels; 0.1 mpk, 0h, plasma (Table 12)): 0.40 ng/mL
Cortisol (plasma hormone levels; [3]): 599.0 ng/mL
Aldosterone (plasma hormone levels; 0.1 mpk, 30min after ACTH stimulation, plasma (Table 12)): 0.20 ng/mL
Aldosterone (plasma hormone levels; 0.3 mpk (dose printed 03), 0h, plasma (Table 12)): 0.13 ng/mL
Aldosterone (plasma hormone levels; 0.3 mpk (dose printed 03), 30min after ACTH stimulation, plasma (Table 12)): 0.05 ng/mL
Cortisol (plasma hormone levels; 0.3 mpk, 0h, plasma): 283.0 ng/mL
Cortisol (plasma hormone levels; [4]): 387.0 ng/mL

Cmax ([1]; male): 1140 nM
MRT inf ([1]; male): 13 h
half-life ([1]; male): 10.5 h
AUC(0-t) ([1]; male, read-out: AUC0-24): 13.5 µM·h
SMILES: [2H]C([2H])([2H])OC(=O)N[C@@H]1CCOc2c(-c3cc(F)c4c(ccc(=O)n4C)c3)cncc21 [Compound A50]
Aldosterone (plasma hormone levels; 0.03 mpk, 0h, plasma): 0.12 ng/mL
Cortisol (plasma hormone levels; 0.03 mpk, 0h, plasma): 358.3 ng/mL
Aldosterone (plasma hormone levels; [2]): 0.22 ng/mL
Cortisol (plasma hormone levels; [2]): 430.0 ng/mL
Aldosterone (plasma hormone levels; 0.1 mpk, 0h, plasma): 0.49 ng/mL
Cortisol (plasma hormone levels; 0.1 mpk, 0h, plasma): 282.0 ng/mL
Aldosterone (plasma hormone levels; [3]): 0.12 ng/mL
Cortisol (plasma hormone levels; [3]): 386.0 ng/mL
Aldosterone (plasma hormone levels; 0.3 mpk, 0h, plasma): 0.12 ng/mL
Cortisol (plasma hormone levels; 0.3 mpk, 0h, plasma): 304.7 ng/mL
Aldosterone (plasma hormone levels; [4]): 0.06 ng/mL
Cortisol (plasma hormone levels; [4]): 369.7 ng/mL
